Values after ≈ are worked out from the molar mass of the structure shown.
Legend:
Type in all cases: cell-based
[1] = system: breast cancer cells (MDA-MB-231); assay: MTT cytotoxicity assay, MDA-MB-231
Procedure: (§1) The cell lines were obtained from American Type Culture Collection (ATCC). With the usage of the Thiazolyl Blue Tetrazolium Bromide (MTT) method, various concentrations of the compounds (8c, 8f, 8h, 8i, and 8L) were evaluated for their cytotoxicity against the HSF, H460, A431, A549, and MDA-MB-231 cell lines. In brief HSF, H460, A431, A549 and MDA-MB-231 cell lines cells (10 × 10^3) were cultured in 96 well plate for overnight at 37 °C, 5% CO2 and 88% humidity. The total volume of used DMEM supplemented medium and the synthesized compounds supernatant was 200 µL with final concentrations of 25, 50, 100, 150 and 200 µg/ml. The plate was incubated at 37 °C, 5% CO2 for 48 h. After incubation, debris and dead cells were removed by washing three times with fresh medium. […] 200 µL dimethyl sulfoxide (DMSO) was added to each well and shook again for 5 min at 150 rpm, and then the viability of the cells was calculated by measuring the optical density at 630 nm subtracted from optical density at 570 nm. The relative cell viability (%) was determined as the given formula: Therelativecellviability%=ODS/ODC×100 whereas ODS is the mean optical density of sample, ODC is the mean OD of control group. […] Tumor-selectivity index (TS value) was determined by dividing the mean IC50 against normal cells by the mean IC50 against tumor cells. […]

MDA-MB-231 cells = assay: Morphological modifications under phase-contrast microscope, MDA-MB-231; conditions: IC50 dose, 48 h, vs untreated control
Procedure: (§2) The present study aimed to investigate the in vitro effects of five synthetic compounds (8c, 8f, 8h, 8i, and 8L) on the morphological modifications of four different cancer cell lines (A431, A549, H460, and MDA-MB-231) compared with untreated control cells (Fig. 5). The cells were treated with the compounds at IC50 doses for 48 h, and the morphological changes were observed under a phase-contrast microscope.
(§3) All cells were treated with compounds (8c, 8f, 8h, 8i and 8L) at IC50 doses for 48 h as compared to untreated control cells.
(§4) The cell lines were obtained from American Type Culture Collection (ATCC). With the usage of the Thiazolyl Blue Tetrazolium Bromide (MTT) method, various concentrations of the compounds (8c, 8f, 8h, 8i, and 8L) were evaluated for their cytotoxicity against the HSF, H460, A431, A549, and MDA-MB-231 cell lines. […] 200 µL dimethyl sulfoxide (DMSO) was added to each well and shook again for 5 min at 150 rpm, and then the viability of the cells was calculated by measuring the optical density at 630 nm subtracted from optical density at 570 nm. The relative cell viability (%) was determined as the given formula: Therelativecellviability%=ODS/ODC×100 whereas ODS is the mean optical density of sample, ODC is the mean OD of control group. […]

lung cancer cells (A549) = assay: MTT cytotoxicity assay, A549
Procedure: as §1

A431 cells = assay: Morphological modifications under phase-contrast microscope, A431; conditions: IC50 dose, 48 h, vs untreated control
Procedure: as §2, §3, §4

lung cancer cells (H460) = assay: MTT cytotoxicity assay, H460; conditions: for selectivity index (SI): mean IC50 against normal cells (HSF) divided by IC50 against H460
Procedure: (§5) The cell lines were obtained from American Type Culture Collection (ATCC). With the usage of the Thiazolyl Blue Tetrazolium Bromide (MTT) method, various concentrations of the compounds (8c, 8f, 8h, 8i, and 8L) were evaluated for their cytotoxicity against the HSF, H460, A431, A549, and MDA-MB-231 cell lines. In brief HSF, H460, A431, A549 and MDA-MB-231 cell lines cells (10 × 10^3) were cultured in 96 well plate for overnight at 37 °C, 5% CO2 and 88% humidity. The total volume of used DMEM supplemented medium and the synthesized compounds supernatant was 200 µL with final concentrations of 25, 50, 100, 150 and 200 µg/ml. The plate was incubated at 37 °C, 5% CO2 for 48 h. After incubation, debris and dead cells were removed by washing three times with fresh medium. […] of MTT solution (5 mg/ml of MTT in PBS buffer) was added to each well and shook for 5 min at 150 rpm to thoroughly mix the MTT into the media. The cells were incubated at 37 °C and 5% CO2 for 3–5 h to metabolize MTT by viable cells. 200 µL dimethyl sulfoxide (DMSO) was added to each well and shook again for 5 min at 150 rpm, and then the viability of the cells was calculated by measuring the optical density at 630 nm subtracted from optical density at 570 nm. The relative cell viability (%) was determined as the given formula: Therelativecellviability%=ODS/ODC×100 whereas ODS is the mean optical density of sample, ODC is the mean OD of control group. […] Tumor-selectivity index (TS value) was determined by dividing the mean IC50 against normal cells by the mean IC50 against tumor cells. Thus obtained TS values seem to reflect the in vivo antitumor activity even though these cells were different types of cells (epithelial oral squamous cell carcinoma cell lines versus mesenchymal normal oral cells).

skin cancer cells (A431) = assay: MTT cytotoxicity assay, A431; conditions: for selectivity index (SI): mean IC50 against normal cells (HSF) divided by IC50 against A431
Procedure: as §5

TOP2B = assay: qRT-PCR mRNA expression of TOP2B in A431 cells; conditions: IC50 concentration, 2 days, fold vs untreated control
Procedure: (§6) In this study, the impact of potent antitumor compounds (8c, 8f, 8h, 8i, and 8L) on the expression levels of four tumor regulating genes, namely Topoisomerase II beta (TOP2B), mitogen-activated protein kinase (MAP K) (p38), tumor protein interacted with the mouse double minute 2 homolog (p53), and Epidermal growth factor receptor (EGFR), was investigated in skin cancer cells (A431). Evaluation the relative changes in mRNA expression levels of four key genes by performing quantitative real-time PCR (qRT-PCR) before and after treatment for 2 days with IC50 concentrations of compounds (8c, 8f, 8h, 8i, and 8L). Total RNA was extracted from the cells using the Gene JET RNA Purification Kit (Thermo Scientific, USA), followed by cDNA synthesis using the cDNA Synthesis Kit (Thermo Scientific, USA) protocol. SYBR green kit and specific primers (Forward/Reverse) were used for qRT-PCR: 5′-[…]-3’/5’-[…]-3′ for p38, 5′-[…]-3′/5′-[…]-3′ for p53, 5’-[…]-3’/5’-[…]-3’ for TOP2B, and 5’-[…]-3’/5’-[…]-3’ for EGFR. The expression levels of the tested genes were determined by using the 2^−ΔΔCT equation to assess any changes in upregulation and/or downregulation of gene expression.

EGFR = assay: qRT-PCR mRNA expression of EGFR in A431 cells; conditions: IC50 concentration, 2 days, fold vs untreated control
Procedure: as §6

H460 cells = assay: Morphological modifications under phase-contrast microscope, H460; conditions: IC50 dose, 48 h, vs untreated control
Procedure: as §2, §3, §4

A549 cells = assay: Morphological modifications under phase-contrast microscope, A549; conditions: IC50 dose, 48 h, vs untreated control
Procedure: as §2, §3, §4

p53 = assay: qRT-PCR mRNA expression of p53 in A431 cells; conditions: IC50 concentration, 2 days, fold vs untreated control
Procedure: as §6

p38 = assay: qRT-PCR mRNA expression of p38 in A431 cells; conditions: IC50 concentration, 2 days, fold vs untreated control
Procedure: as §6

Compound	morphological modifications (MDA-MB-231 cells)	morphological modifications (A431 cells)	selectivity index (SI) (lung cancer cells (H460))	selectivity index (SI) (skin cancer cells (A431))	relative change in mRNA expression level of TOP2B (TOP2B)	relative change in mRNA expression level of EGFR (EGFR)	morphological modifications (H460 cells)	morphological modifications (A549 cells)	other results
CC1(C)CC(=O)C2=C(C1)N(CCOC(=O)CN1C(=O)c3ccccc3C1=O)C1=C(C(=O)CC(C)(C)C1)C2c1ccc2c(c1)OCO2 [Compound 8L, 2-(9-(benzo[d][1,3]dioxol-5-yl)-3,3,6,6-tetramethyl-1,8-dioxo-2,3,4,5,6,7,8,9-octahydroacridin-10(1H)-yl)ethyl 2-(1,3-dioxoisoindolin-2-yl)acetate]	significant cell damage and alterations in cell morphology	–	–	–	–	–	–	–	IC50 ([1]; Homo sapiens, MDA-MB-231 cells, MTT, 48 h, mean ± SEM): 27.7 ± 2.7 µg/mL (≈ 44.3 µM); selectivity index (SI) ([1]; mean IC50 against normal cells (HSF) divided by IC50 against MDA-MB-231): 4.4
COc1ccc(C2C3=C(CC(C)(C)CC3=O)N(CCOC(=O)CN3C(=O)c4ccccc4C3=O)C3=C2C(=O)CC(C)(C)C3)cc1 [Compound 8i, 2-(9-(4-methoxyphenyl)-3,3,6,6-tetramethyl-1,8-dioxo-2,3,4,5,6,7,8,9-octahydroacridin-10(1H)-yl) ethyl 2-(1,3-dioxoisoindolin-2-yl) acetate]	–	significant cell damage and alteration in the morphology	–	–	–	–	–	–	IC50 (lung cancer cells (A549); Homo sapiens, A549 cells, MTT, 48 h, mean ± SEM): 37.4 ± 4.5 µg/mL; selectivity index (SI) (lung cancer cells (A549); mean IC50 against normal cells (HSF) divided by IC50 against A549): 4.0
COc1ccc(C2C3=C(CC(C)(C)CC3=O)N(CCOC(=O)CN3C(=O)c4ccccc4C3=O)C3=C2C(=O)CC(C)(C)C3)cc1OC [Compound 8h, 2-(9-(3,4-dimethoxyphenyl)-3,3,6,6-tetramethyl-1,8-dioxo-2,3,4,5,6,7,8,9-octahydroacridin-10(1H)-yl) ethyl 2-(1,3-dioxoisoindolin-2-yl) acetate]	–	–	3.5	4.5	lowest relative change	lowest relative change	–	–	–
CC1(C)CC(=O)C2=C(C1)N(CCOC(=O)CN1C(=O)c3ccccc3C1=O)C1=C(C(=O)CC(C)(C)C1)C2c1ccc(F)cc1 [Compound 8c, 2-(9-(4-fluorophenyl)-3,3,6,6-tetramethyl-1,8-dioxo-2,3,4,5,6,7,8,9-octahydroacridin-10(1H)-yl) ethyl 2-(1,3-dioxoisoindolin-2-yl) acetate]	–	–	–	–	–	–	noticeable cell damage and alterations in the morphology	significant cell damage and alterations in the morphology	–
CC1(C)CC(=O)C2=C(C1)N(CCOC(=O)CN1C(=O)c3ccccc3C1=O)C1=C(C(=O)CC(C)(C)C1)C2c1ccc(-c2ccccc2)cc1 [Compound 8f, 2-(9-([1,1'-biphenyl]-4-yl)-3,3,6,6-tetramethyl-1,8-dioxo-2,3,4,5,6,7,8,9-octahydroacridin-10(1H)-yl) ethyl 2-(1,3-dioxoisoindolin-2-yl) acetate]	significant cell damage and alterations in cell morphology	significant cell damage and alteration in the morphology	7.7	15.9	lowest relative change	lowest relative change	noticeable cell damage and alterations in the morphology	significant cell damage and alterations in the morphology	IC50 (lung cancer cells (H460); Homo sapiens, NCI-H460, H460 cells, MTT, 48 h, mean ± SEM): 24.6 ± 3.4 µg/mL; IC50 (skin cancer cells (A431); Homo sapiens, A-431, A431 cells, MTT, 48 h, mean ± SEM): 11.9 ± 3.3 µg/mL; relative change in mRNA expression level of p53 (p53): highest relative change; relative change in mRNA expression level of p38 (p38): highest relative change

From paper PMC10497682, “Synthesis and cytotoxicity evaluation of novel 1,8-acridinedione derivatives bearing phthalimide moiety as potential antitumor agents” (Scientific Reports, 2023)
